Assay results reported in the NIST ThermoML archive (doi:10.1021/je700308j).
Several values for one entry are separate records, joined by “and”; a condition that tells them apart may be missing. Equal values may be shown once.

Tests used:
[1] = heat capacity at constant pressure per volume; xn = mol fraction of the nth substance listed; conditions: 298.15 K, 101 kPa, Liquid, Flow calorimetry
[2] = xn = mol fraction of the nth substance listed; conditions: 298.15 K, 101 kPa, Liquid
[3] = excess molar enthalpy (molar enthalpy of mixing); xn = mol fraction of the nth substance listed; conditions: 101 kPa, Liquid, Flow calorimetry

C1CCOC1 [tetrahydrofuran] + CO
Conditions	heat capacity, [1] [J/K/m3]	mass density, [2] [kg/m3]
x1 = 0.0989	1907000	804.78
x1 = 0.195	1850000	819.46
x1 = 0.2967	1797000	832.35
x1 = 0.4006	1747000	843.35
x1 = 0.4848	1714000	851
x1 = 0.5999	1667000	859.93
x1 = 0.6968	1631000	866.37
x1 = 0.7926	1594000	871.94
x1 = 0.8946	1555000	877.17

C1CCCC1 [cyclopentane] + CCCCO
[3], 298.15 K
Conditions	excess molar enthalpy
x1 = 0.098	0.022 kcal/mol
x1 = 0.196	0.0427 kcal/mol
x1 = 0.294	0.0637 kcal/mol
x1 = 0.393	0.0857 kcal/mol and 0.0846 kcal/mol
x1 = 0.493	0.104 kcal/mol
x1 = 0.593	0.118 kcal/mol
x1 = 0.694	0.124 kcal/mol
x1 = 0.796	0.116 kcal/mol
x1 = 0.897	0.0941 kcal/mol
x1 = 0.949	0.0739 kcal/mol

C1CCOC1 [tetrahydrofuran] + CCCCO
Conditions	heat capacity, [1] [J/K/m3]	mass density, [2] [kg/m3]
x1 = 0.0456	1918000	808.89
x1 = 0.0951	1901000	812.34
x1 = 0.1935	1867000	819.24
x1 = 0.2997	1830000	826.84
x1 = 0.3963	1794000	833.86
x1 = 0.5009	1753000	841.67
x1 = 0.5988	1711000	849.16
x1 = 0.6962	1667000	856.68
x1 = 0.8012	1615000	865.12
x1 = 0.9017	1564000	873.45
x1 = 0.9472	1541000	877.34

CCCCCCCCCO [nonan-1-ol] + C1CCOC1
[2]
Conditions	mass density [kg/m3]
x2 = 0.1048	827.19
x2 = 0.1889	829.58
x2 = 0.3131	833.79
x2 = 0.4067	837.47
x2 = 0.504	841.9
x2 = 0.6004	847.05
x2 = 0.7009	853.33
x2 = 0.7999	860.89
x2 = 0.9015	870.34

CCCCCCCO [heptan-1-ol] + C1CCOC1
Conditions	heat capacity, [1] [J/K/m3]	mass density, [2] [kg/m3]
x2 = 0.1103	1888000	822.54
x2 = 0.2085	1859000	826.55
x2 = 0.3123	1827000	831.18
x2 = 0.4046	1797000	835.76
x2 = 0.496	1765000	840.88
x2 = 0.5973	1725000	847.05
x2 = 0.6977	1680000	854.06
x2 = 0.8031	1627000	862.49
x2 = 0.9021	1572000	871.51

C1CCCC1 [cyclopentane] + CCCCCCCO
[3], 298.15 K
Conditions	excess molar enthalpy
x1 = 0.143	0.0296 kcal/mol
x1 = 0.273	0.0554 kcal/mol
x1 = 0.392	0.0786 kcal/mol
x1 = 0.5	0.0937 kcal/mol
x1 = 0.6	0.104 kcal/mol
x1 = 0.692	0.106 kcal/mol
x1 = 0.778	0.102 kcal/mol
x1 = 0.857	0.0921 kcal/mol and 0.0923 kcal/mol
x1 = 0.931	0.075 kcal/mol
x1 = 0.966	0.0603 kcal/mol

CCCCCCO [hexan-1-ol] + C1CCOC1
Conditions	heat capacity, [1] [J/K/m3]	mass density, [2] [kg/m3]
x2 = 0.1191	1886000	820.48
x2 = 0.1994	1862000	824.38
x2 = 0.3032	1829000	829.77
x2 = 0.3931	1800000	834.74
x2 = 0.505	1759000	841.56
x2 = 0.6028	1719000	848.03
x2 = 0.6944	1678000	854.68
x2 = 0.7937	1628000	862.57
x2 = 0.8961	1574000	871.63

C1CCCC1 [cyclopentane] + CCCCCCCCCO
[3], 298.15 K
Conditions	excess molar enthalpy [kcal/mol]
x1 = 0.171	0.0418
x1 = 0.316	0.0712
x1 = 0.442	0.091
x1 = 0.552	0.101
x1 = 0.649	0.104
x1 = 0.735	0.102
x1 = 0.812	0.0962
x1 = 0.881	0.0862
x1 = 0.943	0.07
x1 = 0.972	0.0548

C1CCCC1 [cyclopentane] + CCCCCCCCO
[3], 298.15 K
Conditions	excess molar enthalpy [kcal/mol]
x1 = 0.157	0.0349
x1 = 0.295	0.0632
x1 = 0.418	0.0844
x1 = 0.528	0.0971
x1 = 0.626	0.104
x1 = 0.715	0.105
x1 = 0.796	0.0987
x1 = 0.87	0.0889
x1 = 0.938	0.0725
x1 = 0.97	0.0576

CCCCCCCCCCO [decan-1-ol] + C1CCOC1
Conditions	heat capacity, [1] [J/K/m3]	mass density, [2] [kg/m3]
x2 = 0.0904	1904000	828.17
x2 = 0.2067	1869000	831.12
x2 = 0.3967	1810000	837.35
x2 = 0.5985	1734000	846.59
x2 = 0.7992	1635000	860.14
x2 = 0.8981	1573000	869.46

C1CCOC1 [tetrahydrofuran] + CCCCCCCCO
Conditions	heat capacity, [1] [J/K/m3]	mass density, [2] [kg/m3]
x1 = 0.0608	1927000	823.33
x1 = 0.088	1918000	824.18
x1 = 0.1954	1884000	827.86
x1 = 0.3048	1850000	832.05
x1 = 0.4026	1817000	836.34
x1 = 0.5009	1781000	841.27
x1 = 0.6069	1737000	847.37
x1 = 0.7044	1691000	853.86
x1 = 0.7994	1640000	861.36
x1 = 0.9	1580000	870.65
x1 = 0.9523	1546000	876.26

C1CCOC1 [tetrahydrofuran] + CCO
Conditions	heat capacity, [1] [J/K/m3]	mass density, [2] [kg/m3]
x1 = 0.0532	1907000	792.12
x1 = 0.0989	1889000	798.14
x1 = 0.2018	1849000	810.67
x1 = 0.3084	1808000	822.54
x1 = 0.4	1772000	832.02
x1 = 0.5015	1731000	841.8
x1 = 0.6074	1688000	851.3
x1 = 0.711	1643000	860.02
x1 = 0.8104	1599000	867.85
x1 = 0.9048	1556000	875.03
x1 = 0.9426	1540000	877.76

C1CCCC1 [cyclopentane] + CCCCCCCCCCO
excess molar enthalpy, [3]
Conditions	x1 = 0.336	x1 = 0.465	x1 = 0.575	x1 = 0.67	x1 = 0.752	x1 = 0.89	x1 = 0.975
298.15 K	0.0786 kcal/mol and 0.0778 kcal/mol	0.0965 kcal/mol	0.104 kcal/mol	0.105 kcal/mol	0.101 kcal/mol	0.0851 kcal/mol	–
298.65 K	–	–	–	–	–	–	0.0495 kcal/mol

C1CCCC1 [cyclopentane] + CCCCCO
[3], 298.15 K
Conditions	excess molar enthalpy [kcal/mol]
x1 = 0.113	0.0229
x1 = 0.223	0.0451
x1 = 0.33	0.0674
x1 = 0.434	0.0882
x1 = 0.535	0.105
x1 = 0.633	0.115
x1 = 0.728	0.115
x1 = 0.821	0.105
x1 = 0.912	0.0849
x1 = 0.956	0.0674

CCCCCCCCC [nonane] + C1CCOC1
[3], 298.15 K
Conditions	excess molar enthalpy
x2 = 0.104	0.0714 kcal/mol
x2 = 0.197	0.124 kcal/mol
x2 = 0.355	0.189 kcal/mol
x2 = 0.485	0.213 kcal/mol
x2 = 0.595	0.212 kcal/mol
x2 = 0.688	0.195 kcal/mol
x2 = 0.768	0.169 kcal/mol
x2 = 0.837	0.134 kcal/mol
x2 = 0.898	0.0974 kcal/mol
x2 = 0.952	0.0514 kcal/mol and 0.0513 kcal/mol

C1CCCC1 [cyclopentane] + CCCCCCO
[3], 298.15 K
Conditions	excess molar enthalpy
x1 = 0.128	0.0277 kcal/mol
x1 = 0.249	0.0484 kcal/mol
x1 = 0.362	0.0707 kcal/mol
x1 = 0.469	0.0894 kcal/mol and 0.0897 kcal/mol
x1 = 0.57	0.102 kcal/mol
x1 = 0.665	0.108 kcal/mol
x1 = 0.756	0.105 kcal/mol
x1 = 0.841	0.0954 kcal/mol
x1 = 0.923	0.0778 kcal/mol
x1 = 0.962	0.0619 kcal/mol

C1CCOC1 [tetrahydrofuran] + CCCO
Conditions	heat capacity, [1] [J/K/m3]	mass density, [2] [kg/m3]
x1 = 0.0482	1911000	804.27
x1 = 0.103	1891000	809.19
x1 = 0.1944	1858000	817.24
x1 = 0.3022	1819000	826.44
x1 = 0.3994	1782000	834.52
x1 = 0.499	1742000	842.64
x1 = 0.5994	1699000	850.66
x1 = 0.7016	1654000	858.7
x1 = 0.795	1610000	866.01
x1 = 0.9017	1560000	874.29
x1 = 0.9435	1541000	877.53
